Data from patent US5358945A, “Pyrimidine compound and pharmaceutically acceptable salts thereof” (Mitsui Petrochemical Industries, Ltd., priority 1990, dated 1994).

Experiments:
[1] = tested on: Mouse neuroblastoma cells NS-20Y; experiment: Neurite appearance in mouse neuroblastoma NS-20Y cells (Table 8); assay type: cell-based;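 note: cells grown in polyornithine-coated dishes, with timing counted from the start of culture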
Mouse neuro 2a cells = experiment: Neurite outgrowth of mouse neuroblastoma neuro 2a cells (Table 7); assay type: cell-based; settings: mean ± S.D.
Experimental: The biological activities in vitro of the compounds of formula (I) on cells of the nervous system were tested. The cells tested were mouse neuroblastoma cell line neuro-2a (Dainippon Pharmaceutical Co., Ltd.) which have been established as the cells of the nervous system. The above nerve cells were grown in an incubator at 37° C. in the presence of 5% carbon dioxide gas exponentially, and the cultured for a certain period of time together with the compounds of formula (I).
The effects of the compounds of this invention on neuroblastoma cells were examined by the following method.
Mouse neuro 2a cells in the logarithmic growth period in the Dulbecco's modified Eagle's medium [DMEM, containing 100 units/ml of penicillin G sodium and 100 micrograms/ml of streptomycin sulfate] containing 10% of FCS were seeded in a 48-well plate so that the number of cells was 1,000 cells/well, and cultured for one day in 0.25 ml of the culture fluid in each well in an incubator containing 5% of carbon dioxide gas in air at 37° C. The medium was replaced by a medium containing each antibiotics and FCS and the cells were further cultured for 24 hours. Then, a 4% aqueous glutaraldehyde solution in the same amount as a medium (0.25 ml) was added, and the culture was left to stand at room temperature for 2 hours to fix the cells. After washing with water, a 0.05% aqueous solution of methylene blue was added to stain the cells. Under a microscope, the number of cells containing outgrown neurites (cells having at least one neurite with a length of at least two times as large as the long diameter of the cell) was counted visually, and the proportion of these cells in the entire cells was calculated. The well was observed over 5 or more visual fields (at least 2% of the entire surface area of the well) continuous to the left and right from a mark put at the center of the well, and more than 200 cells was counted. One drug compound was used in 6 different concentrations at most, and three runs were conducted for each concentration.

mouse = experiment: Acute toxicity in mouse (Table 10); assay type: in vivo
Experimental: The acute toxicity of the compounds of the invention was examined by the following method.
Male ddy-strain 5-week old mice, 4-6 per group, were used as experimental animals. Each of the compounds was dissolved or suspended in saline and administered perorally (p.o.) or intraperitoneally (i.p.), and the toxicity of the compound was assessed 24 hours after the administration.

[2] = i.p., 24 hours after administration

SMILES | The number of cells in which neurites appeared/Total number of cells ([1]; 24 hour, 0.1 mM) | The number of cells in which neurites appeared/Total number of cells ([1]; 48 hour, 0.1 mM) | Ratio of the number of cells having neurites with a length of at least two times as large as the diameter of cells to the total number of cells (Mouse neuro 2a cells; 0.03 mM) [%] | Ratio of the number of cells having neurites with a length of at least two times as large as the diameter of cells to the total number of cells (Mouse neuro 2a cells; 0.1 mM) [%] | Ratio of the number of cells having neurites with a length of at least two times as large as the diameter of cells to the total number of cells (Mouse neuro 2a cells; 0.3 mM) [%] | Ratio of the number of cells having neurites with a length of at least two times as large as the diameter of cells to the total number of cells (Mouse neuro 2a cells; 1 mM) [%] | Estimated LD50 (mouse; in vivo, ip) [mg/kg] | Ratio of the number of cells having neurites with a length of at least two times as large as the diameter of cells to the total number of cells (Mouse neuro 2a cells; 0.01 mM) [%] | The number of cells in which neurites appeared/Total number of cells ([1]; 24 hour, 0.2 mM) | The number of cells in which neurites appeared/Total number of cells ([1]; 48 hour, 0.2 mM) | Estimated LD50 (mouse; [2]) [mg/kg] | The number of cells in which neurites appeared/Total number of cells ([1]; 24 hour, 0.5 mM) | The number of cells in which neurites appeared/Total number of cells ([1]; 48 hour, 0.5 mM)
CC1CCCN(c2nccc(N3CCCC3=O)n2)C1 (stereo not shown) [Compound 336] | 3/50 | 5/50 | 4.0 ± 1.0 | 5.7 ± 1.6 | 21.3 ± 3.0 | 21.2 ± 1.6 | 250 to 500 | – | – | – | – | – | –
CC1CC(C)CN(c2nccc(N3CCCC3=O)n2)C1 (stereo not shown) [Compound 344] | 3/50 | 3/50 | – | 7.5 ± 3.3 | 10.4 ± 3.4 | 12.5 ± 1.3 | 250 to 500 | 5.6 ± 1.6 | – | – | – | – | –
O=C1CCCN1c1ccnc(N2CCc3ccccc3C2)n1 [Compound 352] | – | – | – | – | 4.2 ± 0.6 | – | – | 3.4 ± 0.1 | 5/50 | 3/50 | > 500 | – | –
O=C1CCCN1c1ccnc(N2CCCc3ccccc32)n1 [Compound 360] | 5/50 | 3/50 | 4.8 ± 1.2 | – | 6.7 ± 0.8 | – | – | – | – | – | > 500 | 6/50 | –
O=C1CCCN1c1ccnc(N2CCC(Cc3ccccc3)CC2)n1 [Compound 368] | – | – | – | 14.4 ± 1.7 | – | – | – | 3.4 ± 0.3 | 6/50 | 2/50 | > 500 | – | –
CCOC(=O)C1CCN(c2nccc(N3CCCC3=O)n2)CC1 [Compound 376] | – | – | – | 4.4 ± 0.8 | 6.0 ± 0.5 | – | – | 3.4 ± 0.6 | 5/50 | 5/50 | > 500 | – | –
O=C1CCCN1c1ccnc(N2CCNCC2)n1 [Compound 384] | – | – | – | 5.1 ± 2.1 | 8.3 ± 2.7 | 11.5 ± 1.3 | – | 4.1 ± 1.5 | 10/50 | 10/50 | > 500 | 14/50 | 17/50
O=C1CCCN1c1ccnc(N2CCOCC2)n1 [Compound 392] | – | – | 6.6 ± 2.2 | 5.6 ± 3.7 | 6.1 ± 4.0 | – | – | – | 10/50 | 12/50 | > 500 | 15/50 | 21/50
O=C1CCCN1c1ccnc(N2CCSCC2)n1 [Compound 400] | – | – | 5.0 ± 0.1 | 6.3 ± 0.7 | 11.2 ± 1.5 | 12.1 ± 1.4 | – | – | 8/50 | 11/50 | > 500 | 9/50 | 13/50
CN1CCN(c2nccc(N3CCCC3=O)n2)CC1 [Compound 408] | – | – | 4.9 ± 0.2 | – | 4.4 ± 0.2 | – | – | – | 7/50 | 8/50 | > 500 | 10/50 | 11/50
O=C1CCCN1c1ccnc(N2CCN(c3ccccc3)CC2)n1 [Compound 416] | – | – | – | 4.4 ± 0.4 | 5.1 ± 1.2 | – | – | 5.0 ± 1.9 | 6/50 | 7/50 | > 500 | 9/50 | 9/50
O=C1CCCN1c1ccnc(N2CCN(Cc3ccccc3)CC2)n1 [Compound 424] | 3/50 | 2/50 | 4.5 ± 2.4 | 5.9 ± 1.7 | 5.2 ± 2.5 | – | – | – | 5/50 | – | > 500 | – | –
CN(C)c1nccc(N2CCCC2=O)n1 [Compound 432] | – | – | 4.0 ± 2.2 | 4.2 ± 1.7 | – | 5.1 ± 1.2 | – | – | – | 7/50 | > 500 | 6/50 | 8/50
